What was measured:
[1] = target: JAK1 (recombinant purified GST-tagged catalytic domain) (Homo sapiens (Human), UniProt P23458);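 also: biochemical assay with HTRF read-out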
[2] = target: JAK2 (recombinant purified GST-tagged catalytic domain) (Homo sapiens (Human), UniProt O60674);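 also: biochemical JAK kinase assay with HTRF detection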
JAK2 (recombinant purified GST-tagged catalytic domain), sequence (O60674 849-1124): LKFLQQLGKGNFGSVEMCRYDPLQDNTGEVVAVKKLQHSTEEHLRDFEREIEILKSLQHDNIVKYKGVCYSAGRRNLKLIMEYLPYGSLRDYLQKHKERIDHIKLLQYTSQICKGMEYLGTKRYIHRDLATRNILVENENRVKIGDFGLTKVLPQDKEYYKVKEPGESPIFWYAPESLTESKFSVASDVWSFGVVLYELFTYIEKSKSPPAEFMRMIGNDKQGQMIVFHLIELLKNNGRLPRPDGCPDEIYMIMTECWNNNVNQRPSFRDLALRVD

JAK1 (recombinant purified GST-tagged catalytic domain), sequence (P23458 875-1153): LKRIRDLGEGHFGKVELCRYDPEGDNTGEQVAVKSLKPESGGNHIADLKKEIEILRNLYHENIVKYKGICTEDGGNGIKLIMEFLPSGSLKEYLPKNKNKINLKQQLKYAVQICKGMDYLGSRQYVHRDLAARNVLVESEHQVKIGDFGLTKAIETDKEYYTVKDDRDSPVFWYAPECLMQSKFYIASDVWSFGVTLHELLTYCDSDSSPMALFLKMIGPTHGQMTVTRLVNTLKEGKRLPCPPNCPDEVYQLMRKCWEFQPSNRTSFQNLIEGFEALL

Work on N#CC1CCC2(CC1n1cc(C(N)=O)c(Nc3ccccc3)n1)OCCO2 (centres unmarked) [Example 2-3, 1-(8-cyano-1,4-dioxaspiro[4.5]dec-7-yl)-3-(phenylamino)-1H-pyrazole-4-carboxamide] yielded an IC50 [1] of 9 nM and an IC50 [2] of 47 nM.

COC(=O)[C@H]1CCC(n2cc(C(N)=O)c(Nc3ccc(F)cc3)n2)[C@@H](C#N)C1 (some centres unmarked) [Example 7-2] was tested, and the IC50 [1] was 14 nM and the IC50 [2] was 101 nM.

In the case of CC1CCC(C#N)C(n2cc(C(N)=O)c(Nc3ccccc3)n2)C1 (centres unmarked) [Example 11-6, 1-(2-cyano-5-methylcyclohexyl)-3-(phenylamino)-1H-pyrazole-4-carboxamide], the IC50 [1] is reported as 7 nM and the IC50 [2] is reported as 38 nM.

With N#C[C@@H]1CCCC(F)[C@@H]1n1cc(C(N)=O)c(Nc2ccccc2)n1 (some centres unmarked) [Example 23-2] the IC50 [1] was 67 nM and the IC50 [2] was 212 nM.

COCCN[C@H]1CCC(n2cc(C(N)=O)c(Nc3ccc(S(=O)(=O)C(F)(F)F)cc3)n2)[C@@H](C#N)C1 (stereo partly drawn) [Example 27-16, 1-{(1S,2S,4S and1R,2R,4R)-2-cyano-4-[(2-methoxyethyl)amino]cyclohexyl}-3-({4-[(trifluoromethyl)sulfonyl]phenyl)amino)-1H-pyrazole-4-carboxamide] showed an IC50 [1] of 1 nM and an IC50 [2] of 35 nM.

CC[N+]1([C@H]2CC[C@H](n3cc(C(N)=O)c(Nc4ccc(Cl)cc4)n3)[C@@H](C#N)C2)CCC1 [Example 31-3, 1-[(1S,3S,4S)-4-{4-carbamoyl-3-[(4-chlorophenyl)amino]-1H-pyrazol-1-yl}-3-cyanocyclohexyl]-1-ethylazetidinium] gave an IC50 [1] of 1 nM and an IC50 [2] of 28 nM.

In the case of CC1(C)C[N+](C)([C@H]2CC[C@H](n3cc(C(N)=O)c(Nc4ccc(Cl)cc4)n3)[C@@H](C#N)C2)C1 [Example 31-4, 1-[(1S,3S,4S)-4-{4-carbamoyl-3-[(4-chlorophenyl)amino]-1H-pyrazol-1-yl}-3-cyanocyclohexyl]-1,3,3-trimethylazetidinium], the IC50 [1] is reported as 1 nM and the IC50 [2] is reported as 34 nM.

— patent US8962608B2, “Cycloalkylnitrile pyrazole carboxamides as janus kinase inhibitors” (Merck Sharp & Dohme Corp., priority 2011, dated 2015)
